Measured values reported in patent publication US9328099B2, “Cyanomethylpyrazole carboxamides as janus kinase inhibitors” (Merck Sharp & Dohme Corp., priority 2011, dated 2016).

Columns and labels:
JAK1 = JAK1 (Homo sapiens (Human), UniProt P23458); assay: Jak Biochemical HTRF Assay, JAK1; settings: HTRF biochemical assay, GST-tagged catalytic domain; top concentration tested […]; read-out: JAK1 IC50
Description: (§1) Jak Biochemical HTRF Assay Protocol
(§2) Subsequent reagent additions employed an Agilent Bravo.

JAK2 = JAK2 (Homo sapiens (Human), UniProt O60674); assay: Jak Biochemical HTRF Assay, JAK2; settings: HTRF biochemical assay, GST-tagged catalytic domain; top concentration tested […]
Sequence of JAK2 (O60674 849-1124): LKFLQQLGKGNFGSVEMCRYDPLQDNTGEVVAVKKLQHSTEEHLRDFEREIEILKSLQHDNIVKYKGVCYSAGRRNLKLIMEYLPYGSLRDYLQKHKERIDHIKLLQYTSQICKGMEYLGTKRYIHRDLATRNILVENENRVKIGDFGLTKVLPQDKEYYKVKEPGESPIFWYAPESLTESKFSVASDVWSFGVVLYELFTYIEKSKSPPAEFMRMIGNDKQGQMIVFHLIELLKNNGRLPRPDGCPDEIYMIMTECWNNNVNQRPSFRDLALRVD
Description: as §1, §2

Sequence of JAK1 (P23458 875-1153): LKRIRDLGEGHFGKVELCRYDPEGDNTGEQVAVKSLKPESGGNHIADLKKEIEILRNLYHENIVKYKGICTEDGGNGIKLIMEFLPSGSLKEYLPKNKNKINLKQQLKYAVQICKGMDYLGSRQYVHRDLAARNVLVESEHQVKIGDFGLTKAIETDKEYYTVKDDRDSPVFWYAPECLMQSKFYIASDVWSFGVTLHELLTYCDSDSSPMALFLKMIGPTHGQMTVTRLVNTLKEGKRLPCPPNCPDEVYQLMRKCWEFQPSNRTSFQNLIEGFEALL

Row | SMILES | IC50 (JAK1) [nM] | IC50 (JAK2) [nM]
1 | N#CCC1(n2cc(C(N)=O)c(Nc3ccc(F)cc3)n2)CCN(c2ccc(C#N)cc2)CC1 [Example 3-26, 1-[4-(cyanomethyl)-1-(4-cyanophenyl)piperidin-4-yl]-3-[(4-fluorophenyl)amino]-1H-pyrazole-4-carboxamide] | 0.2 | 3
2 | N#CCC1(n2cc(C(N)=O)c(Nc3ccnc(F)c3)n2)CCC(NCc2ccccc2)CC1 (stereo not drawn) [Example 41-18, Cis or trans 1-[4-(benzylamino)-1-(cyanomethyl)cyclohexyl]-3-[(2-fluoropyridin-4-yl)amino]-1H-pyrazole-4-carboxamide] | 0.1 | 10
3 | N#CCC1(n2cc(C(N)=O)c(Nc3ccc(F)cc3)n2)CCC(Nc2ccc(C(F)(F)F)cc2)CC1 (stereo not drawn) [Example 40-73, Cis or trans 1-[1-(cyanomethyl)-4-{[4-(trifluoromethyl)phenyl]amino}cyclohexyl]-3-[(4-fluorophenyl)amino]-1H-pyrazole-4-carboxamide] | 139 | > 1500
4 | Cc1ccc(NC(=O)N2CC(CC#N)(n3cc(C(N)=O)c(Nc4ccccc4)n3)C2)c(C)c1 [Example 38-19, 1-{3-(cyanomethyl)-1-[(2,4-dimethylphenyl)carbamoyl]azetidin-3-yl}-3-(phenylamino)-1H-pyrazole-4-carboxamide] | 23 | 334
5 | CC(C)(C)OC(=O)N1CCC(CC#N)(n2cc(C(N)=O)c(Nc3cc(F)cc(F)c3)n2)CC1 [Example 12-3, tert-butyl 4-{4-carbamoyl-3-[(3,5-difluorophenyl)amino]-1H-pyrazol-1-yl}-4-(cyanomethyl)piperidine-1-carboxylate] | 2 | 42
6 | CC1(COC(=O)N2CCC(CC#N)(n3cc(C(N)=O)c(Nc4ccc(F)cc4)n3)CC2)CC1 [Example 30-8, (1-methylcyclopropyl)methyl 4-(4-carbamoyl-3-(4-fluorophenylamino)-1H-pyrazol-1-yl)-4-(cyanomethyl)piperidine-1-carboxylate] | 1 | 72
7 | Cc1cc(Nc2nn(C3(CC#N)CCN(C(=O)OC(C)(C)C)CC3)cc2C(N)=O)ccn1 [Example 9-17, tent-butyl 4-{4-carbamoyl-3-[(2-methylpyridin-4-yl)amino]-1H-pyrazol-1-yl}-4-(cyanomethyl)piperidine-1-carboxylate] | 15 | 133
8 | CC(C)(C)OC(=O)NC1CCC(CC#N)(n2cc(C(N)=O)c(Nc3ccccc3)n2)CC1 (single isomer, unassigned) [Example 2-19, (1s,3s or 1r,3r) tert-butyl {4-[4-carbamoyl-3-(phenylamino)-1H-pyrazol-1-yl]-4-(cyanomethyl)cyclohexyl}carbamate] | 12 | 267
9 | N#CCC1(n2cc(C(N)=O)c(Nc3ccccc3)n2)CCN(C(=O)OCc2ccccc2F)CC1 [Example 30-33, 2-fluorobenzyl 4-[4-carbamoyl-3-(phenylamino)-1H-pyrazol-1-yl]-4-(cyanomethyl)piperidine-1-carboxylate] | 2 | 40
10 | Cn1cnc(S(=O)(=O)N2CCC(CC#N)(n3cc(C(N)=O)c(Nc4ccccc4)n3)CC2)c1 [Example 37-7, 1-{4-(cyanomethyl)-1-[(1-methyl-1H-imidazol-4-yl)sulfonyl]piperidin-4-yl}-3-(phenylamino)-1H-pyrazole-4-carboxamide] | 2 | 9
11 | CC(C#N)C1(n2cc(C(N)=O)c(Nc3ccc(F)cc3)n2)CCN(C(=O)OC(C)(C)C)CC1 (stereo not shown) [Example 5-1, tert-Butyl 4-(4-carbamoyl-3-((4-fluorophenyl)amino)-1H-pyrazol-1-yl)-4-(1-cyanoethyl)piperidine-1-carboxylate] | 34 | 162
12 | CC(C)(C)OC(=O)N1CCC(C(C#N)C2CC2)(n2cc(C(N)=O)c(Nc3ccc(F)cc3)n2)CC1 (stereo not shown) [Example 5-2, tert-butyl 4-{4-carbamoyl-3-[(4-fluorophenyl)amino]-1H-pyrazol-1-yl}-4-[cyano(cyclopropyl)methyl] piperidine-1-carboxylate] | 271 | 738
13 | CN1CCC(OC(=O)N2CCC(CC#N)(n3cc(C(N)=O)c(Nc4ccccc4)n3)CC2)CC1 [Example 30-42, 1-methylpiperidin-4-yl 4-[4-carbamoyl-3-(phenylamino)-1H-pyrazol-l-yl]-4-(cyanomethyl)piperidine-1-carboxylate] | 41 | 798
14 | N#CCC1(n2cc(C(N)=O)c(Nc3ccc(F)cc3)n2)CCN(c2ccc(OC(F)F)cn2)CC1 [Example 3-19, 1-{4-(cyanomethyl)-1-[5-(difluoromethoxy)pyridin-2-yl]piperidin-4-yl}-3-[(4-fluorophenyl)amino]-1H-pyrazole-4-carboxamide] | 0.6 | 18
15 | N#CCC1(n2cc(C(N)=O)c(Nc3ccccc3)n2)CCN(C(=O)C(c2ccccc2)c2ccccc2)CC1 [Example 34-33, 1-[4-(cyanomethyl)-1-(diphenylacetyl)piperidin-4-yl]-3-(phenylamino)-1H-pyrazole-4-carboxamide] | 153 | 711
16 | CC(C)(C)OC(=O)N1CCC(CC#N)(n2cc(C(N)=O)c(Nc3cncc(F)c3)n2)CC1 [Example 9-35, tert-butyl 4-{4-carbamoyl-3-[(5-fluoropyridin-3-yl)amino]-1H-pyrazol-1-yl}-4-(cyanomethyl)piperidine-1-carboxylate] | 1 | 16
17 | N#CCC1(n2cc(C(N)=O)c(Nc3ccc(F)cc3)n2)CCC(Nc2ccccc2F)CC1 (stereo not drawn) [Example 40-58, Cis or trans 1-{1-(cyanomethyl)-4-[(2-fluorophenyl)amino]cyclohexyl}-3-[(4-fluorophenyl)amino]-1H-pyrazole-4-carboxamide] | 0.2 | 7
18 | COc1ncc(N2CCC(CC#N)(n3cc(C(N)=O)c(Nc4ccc(F)cc4)n3)CC2)cn1 [Example 3-25, 1-[4-(cyanomethyl)-1-(2-methoxypyrimidin-5-yl)piperidin-4-yl]-3-[(4-fluorophenyl)amino]-1H-pyrazole-4-carboxamide] | 0.7 | 21
19 | CC1=NOC(CN2CCC(CC#N)(n3cc(C(N)=O)c(Nc4ccnc(F)c4)n3)CC2)C1 (stereo not shown) [Example 22-42, 1-{4-(cyanomethyl)-1-[(3-methyl-4,5-dihydroisoxazol-5-yl)methyl]piperidin-4-yl}-3-[(2-fluoropyridin-4-yl)amino]-1H-pyrazole-4-carboxamide] | 18 | 582
20 | CN(C)c1ccc(C(=O)N2CCC(CC#N)(n3cc(C(N)=O)c(Nc4ccccc4)n3)CC2)cc1 [Example 34-23, 1-[4-(cyanomethyl)-1-{[4-(dimethylamino)phenyl]carbonyl}piperidin-4-yl]-3-(phenylamino)-lH-pyrazole-4-carboxamide] | 14 | 230
21 | N#CCC1(n2cc(C(N)=O)c(Nc3ccnc(F)c3)n2)CCN(Cc2ccc(Cl)cc2)CC1 [Example 22-71, 1-[1-(4-chlorobenzyl)-4-(cyanomethyl)piperidin-4-yl]-3-[(2-fluoropyridin-4-yl)amino]-1H-pyrazole-4-carboxamide] | 0.1 | 4
22 | COc1ccc(C(=O)N2CCC(CC#N)(n3cc(C(N)=O)c(Nc4ccccc4)n3)CC2)cc1 [Example 34-18, 1-{4-(cyanomethyl)-1-[(4-methoxyphenyl)carbonyl]piperidin-4-yl}-3-(phenylamino)-1H-pyrazole-4-carboxamide] | 8 | 137
23 | N#CCC1(n2cc(C(N)=O)c(Nc3ccnc(F)c3)n2)CCC(NCc2cccc(F)c2)CC1 (stereo not drawn) [Example 41-19, Cis or trans 1-{1-(cyanomethyl)-4-[(3-fluorobenzyl)amino]cyclohexyl}-3-[(2-fluoropyridin-4-yl)amino]-1H-pyrazole-4-carboxamide] | 0.3 | 9
24 | CCCNC(=O)N1CC(CC#N)(n2cc(C(N)=O)c(Nc3ccccc3)n2)C1 [Example 38-18, 1-[3-(cyanomethyl)-1-(propylcarbamoyl)azetidin-3-yl]-3-(phenylamino)-1H-pyrazole-4-carboxamide] | 7 | 106
25 | N#CCC1(n2cc(C(N)=O)c(Nc3ccccc3)n2)CCN(C(=O)/C=C/c2cccnc2)CC1 [Example 34-17, 1-{4-(cyanomethyl)-1-[(2E)-3-pyridin-3-ylprop-2-enoyl]piperidin-4-yl}-3-(phenylamino)-1H-pyrazole-4-carboxamide] | 10 | 158
26 | N#CCC1(n2cc(C(N)=O)c(Nc3ccnc(F)c3)n2)CCN(Cc2cscn2)CC1 [Example 22-25, 1-[4-(cyanomethyl)-1-(1,3-thiazol-4-ylmethyl)piperidin-4-yl]-3-[(2-fluoropyridin-4-yl)amino]-1H-pyrazole-4-carboxamide] | 6 | 208
27 | N#CCC1(n2cc(C(N)=O)c(Nc3ccnc(F)c3)n2)CCC(NCC(F)F)CC1 (stereo not drawn) [Example 40-87, Cis or trans 1-{1-(cyanomethyl)-4-[(2,2-difluoroethyl)amino]cyclohexyl}-3-[(2-fluoropyridin-4-yl)amino]-1H-pyrazole-4-carboxamide] | 13 | 524
28 | COC(=O)c1cccc(N2CCC(CC#N)(n3cc(C(N)=O)c(Nc4ccc(F)cc4)n3)CC2)n1 [Example 3-35, methyl 6-[4-{4-carbamoyl-3-[(4-fluorophenyl)amino]-1H-pyrazol-1-yl}-4-(cyanomethyl)piperidin-1-yl]pyridine-2-carboxylate] | 19 | 280
29 | N#CCC1(n2cc(C(N)=O)c(Nc3ccnc(F)c3)n2)CCN(C(=O)C2(C(F)(F)F)CC2)CC1 [Example 34-56, 1-[4-(cyanomethyl)-1-{[1-(trifluoromethyl)cyclopropyl]carbonyl}piperidin-4-yl]-3-[(2-fluoropyridin-4-yl)amino]-1H-pyrazole-4-carboxamide] | 2 | 40
